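96-well plates; 48 h exposure; 5 concentrations. Endpoints by linear interpolation between flanking doses. Not reached: highest tested concentration assigned. TGI marks complete inhibition of growth.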
Assays:
Test in all cases: NCI tumour cell line growth inhibition, 48 h
SF-295 CNS = system: SF-295 CNS
MALME-3M melanoma = system: MALME-3M melanoma
SR leukemia = system: SR leukemia
COLO 205 colon = system: COLO 205 colon
HOP-92 NSCLC = system: HOP-92 NSCLC
HCT-116 colon = system: HCT-116 colon
HCT-15 colon = system: HCT-15 colon
OVCAR-5 ovarian = system: OVCAR-5 ovarian
UACC-62 melanoma = system: UACC-62 melanoma
TK-10 renal = system: TK-10 renal
NCI-H226 lung = system: NCI-H226 lung
RXF 393 renal = system: RXF 393 renal
SK-MEL-5 melanoma = system: SK-MEL-5 melanoma
MOLT-4 leukemia = system: MOLT-4 leukemia
HOP-62 NSCLC = system: HOP-62 NSCLC
SNB-75 CNS = system: SNB-75 CNS
NCI-H522 lung = system: NCI-H522 lung
BT-549 breast = system: BT-549 breast
OVCAR-8 ovarian = system: OVCAR-8 ovarian
EKVX NSCLC = system: EKVX NSCLC
IGROV1 ovarian = system: IGROV1 ovarian
M14 melanoma = system: M14 melanoma
A549 NSCLC = system: A549 NSCLC
SK-MEL-28 melanoma = system: SK-MEL-28 melanoma
SW-620 colon = system: SW-620 colon
U251 CNS = system: U251 CNS
SF-268 CNS = system: SF-268 CNS
786-0 renal = system: 786-0 renal
HT29 colon = system: HT29 colon
SNB-19 CNS = system: SNB-19 CNS
ACHN renal = system: ACHN renal
OVCAR-3 ovarian = system: OVCAR-3 ovarian
OVCAR-4 ovarian = system: OVCAR-4 ovarian
MDA-MB-435 = system: MDA-MB-435
HCC-2998 colon = system: HCC-2998 colon
DU-145 prostate = system: DU-145 prostate
UACC-257 melanoma = system: UACC-257 melanoma
HL-60(TB) leukemia = system: HL-60(TB) leukemia
NCI-H460 lung = system: NCI-H460 lung
UO-31 renal = system: UO-31 renal
RPMI-8226 leukemia = system: RPMI-8226 leukemia
MDA-MB-231 breast = system: MDA-MB-231 breast
PC-3 prostate = system: PC-3 prostate
SF-539 CNS = system: SF-539 CNS
NCI/ADR-RES ovarian = system: NCI/ADR-RES ovarian
SK-MEL-2 melanoma = system: SK-MEL-2 melanoma
HS 578T breast = system: HS 578T breast
CAKI-1 renal = system: CAKI-1 renal
KM12 colon = system: KM12 colon
CCRF-CEM leukemia = system: CCRF-CEM leukemia
SK-OV-3 ovarian = system: SK-OV-3 ovarian
SN12C renal = system: SN12C renal
T-47D breast = system: T-47D breast
LOX IMVI melanoma = system: LOX IMVI melanoma
MDA-N = system: MDA-N
A498 renal = system: A498 renal

SMILES: CCN(CC)C(=S)N/N=C(\C)c1cccc(C)n1
- TGI (SF-295 CNS): 13.4 µM
- TGI (MALME-3M melanoma): 7.4 µM
- TGI (SR leukemia): > 100 µM
- TGI (COLO 205 colon): 12.1 µM
- TGI (HOP-92 NSCLC): 4.49 µM
- TGI (HCT-116 colon): 1340 nM
- TGI (HCT-15 colon): 18 µM
- TGI (OVCAR-5 ovarian): 23.5 µM
- TGI (UACC-62 melanoma): 1760 nM
- TGI (TK-10 renal): 17 µM
- TGI (NCI-H226 lung): 5.7 µM
- TGI (RXF 393 renal): 14.4 µM
- TGI (SK-MEL-5 melanoma): 1460 nM
- TGI (MOLT-4 leukemia): > 71.5 µM
- TGI (HOP-62 NSCLC): 12.7 µM
- TGI (SNB-75 CNS): 14.1 µM
- TGI (NCI-H522 lung): 454 nM
- TGI (BT-549 breast): 18.8 µM
- TGI (OVCAR-8 ovarian): 16.9 µM
- TGI (EKVX NSCLC): 15.5 µM
- TGI (IGROV1 ovarian): 12.7 µM
- TGI (M14 melanoma): 4.63 µM
- TGI (A549 NSCLC): 11.4 µM
- TGI (SK-MEL-28 melanoma): 6.47 µM
- TGI (SW-620 colon): 17.2 µM
- TGI (U251 CNS): 12.7 µM
- TGI (SF-268 CNS): 12.4 µM
- TGI (786-0 renal): 1360 nM
- TGI (HT29 colon): 1780 nM
- TGI (SNB-19 CNS): 22.2 µM
- TGI (ACHN renal): 1920 nM
- TGI (OVCAR-3 ovarian): 102 nM
- TGI (OVCAR-4 ovarian): 4.24 µM
- TGI (MDA-MB-435): 7.76 µM
- TGI (HCC-2998 colon): 9.6 µM
- TGI (DU-145 prostate): 4.96 µM
- TGI (UACC-257 melanoma): 13.3 µM
- TGI (HL-60(TB) leukemia): 626 nM
- TGI (NCI-H460 lung): 950 nM
- TGI (UO-31 renal): 5.83 µM
- TGI (RPMI-8226 leukemia): 23.4 µM
- TGI (MDA-MB-231 breast): 19.6 µM
- TGI (PC-3 prostate): 17.5 µM
- TGI (SF-539 CNS): 1130 nM
- TGI (NCI/ADR-RES ovarian): 13.5 µM
- TGI (SK-MEL-2 melanoma): 18 µM
- TGI (HS 578T breast): > 81.8 µM
- TGI (CAKI-1 renal): 16.6 µM
- TGI (KM12 colon): 6.53 µM
- TGI (CCRF-CEM leukemia): > 100 µM
- TGI (SK-OV-3 ovarian): 11.3 µM
- TGI (SN12C renal): 13.4 µM
- TGI (T-47D breast): 14.4 µM
- TGI (LOX IMVI melanoma): 2550 nM
- TGI (MDA-N): 13.7 µM
- TGI (A498 renal): 572 nM
